According to US12146134B2, “Microfluidic devices and methods of use in the formation and control of nanoreactors” (Bio-Rad Laboratories, Inc., priority 2006, dated 2024):
{Fluorescein} = fluorescein label; {Biotin} = biotin label

B1: 101: 5′ Biotin-labeled oligonucleotide, SEQ ID NO: 1 (nucleic acid)
DNA: ATCCGCCCCAGCAGCTGCCAGGCACAGCCCCTAAACTCCTGATTTATGCTGCATCCATTTTGC
modifications: DNA, 5' {Biotin}, backbone not given here

Experiments:
Oligonucleotide 102 = experiment: measurement of DNA hybridization using fluorescence polarization (FP) on the microfluidic device; assay type: binding; details: addition of oligonucleotide to the fluorescein-labeled 102
Text: (A) FP can be used to measure the binding of 2 DNA molecules on the microfluidic device. (B) Oligonucleotide 102 is complement to both 101 and 103. […] Oligonucleotides; #101:[NT] ID NO: 1); #102: [NT] ID NO: 2); #103: [NT] NO: 3).

Steptaviden = Steptaviden (Streptomyces avidinii, UniProt P22629); experiment: fluorescence polarization measurements in droplets inside the microfluidic device (biotin/streptavidin binding); details: droplets 65 to 75 um, 10 mM Borate pH 9, data normalized so P(Fluorescein)=0.0
Steptaviden, sequence (P22629 25-183): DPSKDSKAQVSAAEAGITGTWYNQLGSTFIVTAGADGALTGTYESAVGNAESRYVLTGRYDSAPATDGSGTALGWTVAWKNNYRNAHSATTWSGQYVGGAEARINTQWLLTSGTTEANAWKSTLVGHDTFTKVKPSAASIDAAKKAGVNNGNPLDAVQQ
Text: In addition to molecular beacons and Taqman, the devices of the present invention can be used to cany out fluorescence polarization as described herein. Most SNP assays can be adapted for both mini-sequencing and gene expression analysis. A series of fluorescence polarization measurements have been made inside a microfluidic device according to the present invention while looking at droplets containing Fluorescein, Fluorescein bound to biotin, and Fluorescein bound to biotin+Steptaviden. The fluorescence signal was split into two orthogonal polarizations: one parallel to the laser excitation polarization, and one perpendicular to the polarization. These signal were collected and analyzed to determine the change in polarization of the fluorescence for each of these binding conditions.
The Polarization is calculated from:
[formula] Where V=fluorescence signal polarized parallel to laser excitation polarization, and H=fluorescence signal polarized perpendicular.
The fluorescence station was modified to include cleanup polarizer for the laser and a polarizing beamsplitter with cleanup polarizers for collection. The two resulting fluorescence channels collect light with orthogonal polarizations (“Vertical” is parallel to the laser polarization, “Horizontal” is perpendicular to the laser polarization). […]

| Molecule | shift of mP value of labeled 102, indicative of binding (Oligonucleotide 102) | Polarization (mean of histogram grouping) (Steptaviden) |
| --- | --- | --- |
| 103: 5′ Fluorescein-labeled oligonucleotide, SEQ ID NO: 3 (DNA CTAAACTCCTGATTTATGCTGCATCCATTTTGC; DNA, 5' {Fluorescein}, backbone not given here) [compound 103] | shifts the mP value |  |
| Biotinylated Fluorescein [Biotinalated Fluorescein] |  | 18.4 mP |
| B1 | shifts the mP value |  |
